This is an account of results in US20150284342A1, “BIS(FLUOROALKYL)-1,4-BENZODIAZEPINONE COMPOUNDS” (BRISTOL-MYERS SQUIBB COMPANY, priority 2011, published 2015).

Read-outs that look alike come from different tables or passages of the source.

The IC50 is the concentration that gives 50% inhibition.

A short description of data set [1]: High Throughput (HT) Metabolic Stability Panel, human liver microsomes. The method, then:
(§1) Each compound was tested in duplicate.
For orientation: Liver microsomes are a subcellular fraction often used to study metabolism.

Data set [2] in a line: High Throughput (HT) Metabolic Stability Panel, mouse liver microsomes. How it is done: as §1
Data set [3] concerns Notch 1. The experiment in a line: Notch-CBF1 Transactivation Assay (Notch 1). Format: cell-based. An excerpt: (§2) Table 12 denotes respective DNA quantity for the transfections.
(§3) Duplicates were used for each sample.

Data set [4] relates to Notch 3. The experiment in a line: Notch-CBF1 Transactivation Assay (Notch 3). In kind it is cell-based.
Excerpt: as §2, §3

Setting [5] is: 0.5 μM compound, human liver microsomes, 10 min incubation.
[6] abbreviates: 0.5 μM compound, mouse liver microsomes, 10 min incubation.
[7] abbreviates: read-out: Notch 1 (IC50), HeLa cells, luciferase, rounded to 2 digits.
Setting [8] is: read-out: Notch 3 (IC50), HeLa cells, luciferase, rounded to 2 digits.
[9] abbreviates: HeLa cells, luciferase, rounded to 2 digits, read-out: Notch 1 (IC50).
[10] abbreviates: HeLa cells, luciferase, rounded to 2 digits, read-out: Notch 3 (IC50).

As to `C=CC[C@H](C(N)=O)[C@@H](CC(C)C)C(=O)N[C@H]1N=C(c2ccccc2)c2ccccc2N(CCC)C1=O` [Comparative Compound 25, reference compound], the “0.5 μM HLM (% Remaining)” value in data set [1] (setting [5]) was determined as 2.7%. Besides, the “0.5 μM MsLM (% Remaining)” value in data set [2] (setting [6]) came to 0.18%.
On to `CN1C(=O)[C@@H](NC(=O)[C@H](CCC(F)(F)F)[C@H](CCC(F)(F)F)C(N)=O)N=C(c2ccccc2)c2ccc(F)cc21` [Example 8, (2R,3S)—N-((3S)-8-fluoro-1-methyl-2-oxo-5-phenyl-2,3-dihydro-1H-1,4-benzodiazepin-3-yl)-2,3-bis(3,3,3-trifluoropropyl)succinamide], for which the IC50 in data set [3] (setting [7]) was 4.9 nM; in data set [4] (setting [8]), 8.1 nM. Further, in data set [1] (setting [5]), the “0.5 μM HLM (% Remaining)” value is reported as 96%. Moreover, in data set [2] (setting [6]), the “0.5 μM MsLM (% Remaining)” value was 100%.
In the case of `COc1ccc2c(c1)NC(=O)[C@@H](NC(=O)[C@H](CCC(F)(F)F)[C@H](CCCC(F)(F)F)C(N)=O)N=C2c1ccccc1` [Example 20, (2R,3S)—N1-((3S)-8-Methoxy-2-oxo-5-phenyl-2,3-dihydro-1H-1,4-benzodiazepin-3-yl)-3-(4,4,4-trifluorobutyl)-2-(3,3,3-trifluoropropyl)succinamide], the IC50 in data set [3] (setting [7]) came to 2.9 nM; in data set [4] (setting [8]), 4.2 nM. Besides, the “0.5 μM HLM (% Remaining)” value in data set [1] (setting [5]) is reported as 100%. The “0.5 μM MsLM (% Remaining)” value in data set [2] (setting [6]) stood at 100%.
Turning to `NC(=O)[C@@H](CCC(F)(F)F)[C@@H](CCC(F)(F)F)C(=O)N[C@H]1N=C(c2ccccc2)c2ccc(Cl)c(Cl)c2NC1=O` [Example 16, (2R,3S)—N-((3S)-8,9-dichloro-2-oxo-5-phenyl-2,3-dihydro-1H-1,4-benzodiazepin-3-yl)-2,3-bis(3,3,3-trifluoropropyl)succinamide], the values for the IC50 in data set [3] (setting [7]) and in data set [4] (setting [8]) were 4.2 nM and 6.4 nM, respectively. Further, the “0.5 μM HLM (% Remaining)” value in data set [1] (setting [5]) came out at 80%. Further, the “0.5 μM MsLM (% Remaining)” value in data set [2] (setting [6]) worked out at 91%.
Taken in the same sequence, the figures for `COCCNc1cccc2c1NC(=O)[C@@H](NC(=O)[C@H](CCC(F)(F)F)[C@H](CCC(F)(F)F)C(N)=O)N=C2c1ccccc1` [Example 21, (2R,3S)—N-((3S)-9-((2-Methoxyethyl)amino)-2-oxo-5-phenyl-2,3-dihydro-1H-1,4-benzodiazepin-3-yl)-2,3-bis(3,3,3-trifluoropropyl)succinamide] were 1.5 nM, 4.2 nM, 98% and 82%.
Consider `NC(=O)[C@@H](CCCC(F)(F)F)[C@@H](CCC(F)(F)F)C(=O)N[C@H]1N=C(c2ccccc2)c2ccccc2NC1=O` [Example 19, (2R,3S)—N-((3S)-2-Oxo-5-phenyl-2,3-dihydro-1H-1,4-benzodiazepin-3-yl)-3-(4,4,4-trifluorobutyl)-2-(3,3,3-trifluoropropyl)succinamide], for which the figures for the IC50 in data set [3] (setting [7]) and in data set [4] (setting [8]) were 1.3 nM and 3.8 nM, respectively. The “0.5 μM HLM (% Remaining)” value in data set [1] (setting [5]) was 96%. In addition, in data set [2] (setting [6]), the “0.5 μM MsLM (% Remaining)” value stood at 97%.
In the case of `CN1C(=O)[C@@H](NC(=O)[C@H](CCC(F)(F)F)[C@H](CCC(F)(F)F)C(N)=O)N=C(c2ccccc2)c2cc(F)ccc21` [Example 10, (2R,3S)—N-((3S)-7-fluoro-1-methyl-2-oxo-5-phenyl-2,3-dihydro-1H-1,4-benzodiazepin-3-yl)-2,3-bis(3,3,3-trifluoropropyl)succinamide], the figures for the IC50 in data set [3] (setting [7]) and in data set [4] (setting [8]) were 2.9 nM and 4.6 nM, respectively. Further, the “0.5 μM HLM (% Remaining)” value in data set [1] (setting [5]) is listed as 96%. Besides, in data set [2] (setting [6]), the “0.5 μM MsLM (% Remaining)” value is 98%.
On to `C=CC[C@H](C(N)=O)[C@@H](CC(C)C)C(=O)N[C@H]1N=C(c2ccccc2)c2cc(Cl)ccc2N(C)C1=O` [Comparative Compound 23, reference compound], for which the “0.5 μM HLM (% Remaining)” value in data set [1] (setting [5]) was found to be 19%. In addition, the “0.5 μM MsLM (% Remaining)” value in data set [2] (setting [6]) turned out to be 9.0%.
`CN1C(=O)[C@@H](NC(=O)[C@H](CCC(F)(F)F)[C@H](CCC(F)(F)F)C(N)=O)N=C(c2ccccc2)c2ccc(Cl)cc21` [Example 11, (2R,3S)—N-((3S)-8-chloro-1-methyl-2-oxo-5-phenyl-2,3-dihydro-1H-1,4-benzodiazepin-3-yl)-2,3-bis(3,3,3-trifluoropropyl)succinamide]: the IC50 in data set [3] (setting [7]) came out at 1.3 nM; in data set [4] (setting [8]), 2 nM. For the same compound, the “0.5 μM HLM (% Remaining)” value in data set [1] (setting [5]) stood at 97%. Further, the “0.5 μM MsLM (% Remaining)” value in data set [2] (setting [6]) is listed as 98%.
`CCCC[C@H](C(N)=O)[C@@H](CC(C)C)C(=O)N[C@H]1N=C(c2ccc(Cl)cc2)c2ccccc2N(C)C1=O` [Comparative Compound 24, reference compound]: in data set [1] (setting [5]), the “0.5 μM HLM (% Remaining)” value is recorded as 21%. In data set [2] (setting [6]), the “0.5 μM MsLM (% Remaining)” value worked out at 13%.
On to `CC(C)C[C@@H](C(=O)N[C@H]1N=C(c2ccccc2)c2ccccc2N(C)C1=O)[C@H](CCC(F)(F)F)C(N)=O` [Comparative Compound 22, reference compound], for which the IC50 in data set [3] (setting [7]) worked out at 64 nM; in data set [4] (setting [8]), 48 nM. For the same compound, in data set [1] (setting [5]), the “0.5 μM HLM (% Remaining)” value came out at 39%. In addition, in data set [2] (setting [6]), the “0.5 μM MsLM (% Remaining)” value was found to be 15%.
Taken in the same sequence, the figures for `COc1c(C#N)ccc2c1NC(=O)[C@@H](NC(=O)[C@H](CCC(F)(F)F)[C@H](CCC(F)(F)F)C(N)=O)N=C2c1ccccc1` [Example 15, (2R,3S)—N-((3S)-8-cyano-9-methoxy-2-oxo-5-phenyl-2,3-dihydro-1H-1,4-benzodiazepin-3-yl)-2,3-bis(3,3,3-trifluoropropyl)succinamide] were 12 nM, 16 nM, 100% and 93%.
For `NC(=O)[C@@H](CCC(F)(F)F)[C@@H](CCC(F)(F)F)C(=O)N[C@H]1N=C(c2ccccc2)c2cccc(Cl)c2NC1=O` [Example 18, (2R,3S)—N-((3S)-9-chloro-2-oxo-5-phenyl-2,3-dihydro-1H-1,4-benzodiazepin-3-yl)-2,3-bis(3,3,3-trifluoropropyl)succinamide], in that order: 0.53 nM, 2.3 nM, 100% and 100%.
Taken in the same sequence, the figures for `CN1C(=O)[C@@H](NC(=O)[C@H](CC(F)(F)F)[C@H](CCC(F)(F)F)C(N)=O)N=C(c2ccccc2)c2ccccc21` [Example 3, (2R,3S)—N-((3S)-1-Methyl-2-oxo-5-phenyl-2,3-dihydro-1H-1,4-benzodiazepin-3-yl)-2-(2,2,2-trifluoroethyl)-3-(3,3,3-trifluoropropyl)succinamide] were 3.1 nM, 4.7 nM, 84% and 91%.
On to `COc1ccc2c(c1)C(c1ccccc1)=N[C@H](NC(=O)[C@H](CCC(F)(F)F)[C@H](CCC(F)(F)F)C(N)=O)C(=O)N2` [Example 14, (2R,3S)—N-((3S)-7-methoxy-2-oxo-5-phenyl-2,3-dihydro-1H-1,4-benzodiazepin-3-yl)-2,3-bis(3,3,3-trifluoropropyl)succinamide], for which the IC50 was 5.2 nM in data set [3] (setting [9]) and 13 nM in data set [4] (setting [10]). Further, the “0.5 μM HLM (% Remaining)” value in data set [1] (setting [5]) stood at 100%. In addition, the “0.5 μM MsLM (% Remaining)” value in data set [2] (setting [6]) is 95%.
Take `COc1ccc2c(c1)C(c1ccccc1)=N[C@H](NC(=O)[C@H](CCC(F)(F)F)[C@H](CCC(F)(F)F)C(N)=O)C(=O)N2C` [Example 9, (2R,3S)—N-((3S)-7-methoxy-1-methyl-2-oxo-5-phenyl-2,3-dihydro-1H-1,4-benzodiazepin-3-yl)-2,3-bis(3,3,3-trifluoropropyl)succinamide]: the IC50 came to 4.4 nM in data set [3] (setting [7]) and 8.2 nM in data set [4] (setting [8]). In addition, the “0.5 μM HLM (% Remaining)” value in data set [1] (setting [5]) is listed as 100%. Moreover, the “0.5 μM MsLM (% Remaining)” value in data set [2] (setting [6]) is listed as 87%.
`COc1ccc2c(c1)N(C)C(=O)[C@@H](NC(=O)[C@H](CCC(F)(F)F)[C@H](CCC(F)(F)F)C(N)=O)N=C2c1ccccc1` [Example 7, (2R,3S)—N-((3S)-8-methoxy-1-methyl-2-oxo-5-phenyl-2,3-dihydro-1H-1,4-benzodiazepin-3-yl)-2,3-bis(3,3,3-trifluoropropyl)succinamide]: the IC50 in data set [3] (setting [9]) stood at 1.5 nM; in data set [4] (setting [10]), 2.8 nM. Also, in data set [1] (setting [5]), the “0.5 μM HLM (% Remaining)” value stood at 93%. For the same compound, in data set [2] (setting [6]), the “0.5 μM MsLM (% Remaining)” value is on record as 72%.
Consider `CN1C(=O)[C@@H](NC(=O)[C@H](CCC(F)(F)F)[C@H](CCC(F)(F)F)C(N)=O)N=C(c2ccccc2)c2cc(Cl)ccc21` [Example 6, (2R,3S)—N-((3S)-7-chloro-1-methyl-2-oxo-5-phenyl-2,3-dihydro-1H-1,4-benzodiazepin-3-yl)-2,3-bis(3,3,3-trifluoropropyl)succinamide], for which the 50% inhibitory concentration (IC50) in data set [3] (setting [7]) came to 6.5 nM; in data set [4] (setting [8]), 10 nM. In addition, in data set [1] (setting [5]), the “0.5 μM HLM (% Remaining)” value is reported as 100%. In data set [2] (setting [6]), the “0.5 μM MsLM (% Remaining)” value is 100%.
In the case of `COc1cccc2c1NC(=O)[C@@H](NC(=O)[C@H](CCC(F)(F)F)[C@H](CCC(F)(F)F)C(N)=O)N=C2c1ccccc1` [Example 12, (2R,3S)—N-((3S)-9-methoxy-2-oxo-5-phenyl-2,3-dihydro-1H-1,4-benzodiazepin-3-yl)-2,3-bis(3,3,3-trifluoropropyl)succinamide], the IC50 was 2.5 nM in data set [3] (setting [7]) and 4.2 nM in data set [4] (setting [8]). For the same compound, the “0.5 μM HLM (% Remaining)” value in data set [1] (setting [5]) is reported as 100%. For the same compound, the “0.5 μM MsLM (% Remaining)” value in data set [2] (setting [6]) is reported as 100%.
Consider `[2H]C([2H])([2H])N1C(=O)[C@@H](NC(=O)[C@H](CCC(F)(F)F)[C@H](CCC(F)(F)F)C(N)=O)N=C(c2ccccc2)c2ccccc21` [Example 5, (2R,3S)—N-((3S)-1-(^2H3)Methyl-2-oxo-5-phenyl-2,3-dihydro-1H-1,4-benzodiazepin-3-yl)-2,3-bis(3,3,3-trifluoropropyl)succinamide], for which the concentration for half-maximal inhibition (IC50) in data set [3] (setting [9]) was found to be 1.2 nM; in data set [4] (setting [10]), 5.9 nM. Moreover, the “0.5 μM HLM (% Remaining)” value in data set [1] (human, microsomes, 10 min, 0.5 µM, pH 7.4) is given as 100%. The “0.5 μM MsLM (% Remaining)” value in data set [2] (mouse, microsomes, 10 min, 0.5 µM, pH 7.4) came out at 98%.
